# Read-outs that look alike come from different tables or passages of the source.
# How the values were obtained:
# Format in all cases: cell-based
# A. baumannii 1705936 = test: MIC, microtiter-based liquid assay (CLSI); conditions: Acinetobacter baumannii, MDR strain
# K. pneumoniae 1705949 = test: MIC, microtiter-based liquid assay (CLSI); conditions: Klebsiella pneumoniae, MDR strain
# K. pneumoniae 1705966 = test: MIC, microtiter-based liquid assay (CLSI); conditions: Klebsiella pneumoniae
# P. aeruginosa 1705886 = test: MIC, microtiter-based liquid assay (CLSI); conditions: Pseudomonas aeruginosa
# [1] = system: S. pneumoniae 02J1175 Mef(A); test: MIC, microtiter-based liquid assay (CLSI); conditions: Streptococcus pneumoniae
# E. coli 1705878 = test: MIC, microtiter-based liquid assay (CLSI); conditions: Escherichia coli, MDR strain
# E. coli CAG12184 TolC = test: MIC, microtiter-based liquid assay (CLSI); conditions: Escherichia coli, CAG12184TOLC
# B. anthracis = test: microbe, parasite or virus in culture; conditions: Bacillus anthracis; for MIC50: read-out: B. anthracis MIC50; for MIC90: read-out: B. anthracis MIC90; for MIC: read-out: B. anthracis MIC Range
# [2] = system: E. faecium A6349 VanA + LNZ-R; test: MIC, microtiter-based liquid assay (CLSI); conditions: Enterococcus faecium
# F. tularensis = test: microbe, parasite or virus in culture; conditions: Francisella tularensis; for MIC50: read-out: F. tularensis MIC50; for MIC90: read-out: F. tularensis MIC90; for MIC: read-out: F. tularensis MIC Range
# E. coli MG1655 parent = test: MIC, microtiter-based liquid assay (CLSI); conditions: Escherichia coli
# S. aureus 11540 MRSA = test: MIC, microtiter-based liquid assay (CLSI); conditions: Staphylococcus aureus
# E. coli ATCC25922 = test: MIC, microtiter-based liquid assay (CLSI); conditions: Escherichia coli
# Y. pestis = test: microbe, parasite or virus in culture; conditions: Yersinia pestis; for MIC50: read-out: Y. pestis MIC50; for MIC90: read-out: Y. pestis MIC90; for MIC: read-out: Y. pestis MIC Range
# P. aeruginosa ATCC27853 = test: MIC, microtiter-based liquid assay (CLSI); conditions: Pseudomonas aeruginosa
# P. aeruginosa 1705904 = test: MIC, microtiter-based liquid assay (CLSI); conditions: Pseudomonas aeruginosa, MDR strain
# B. pseudomallei = test: microbe, parasite or virus in culture; conditions: Burkholderia pseudomallei; for MIC50: read-out: B. pseudomallei MIC50; for MIC90: read-out: B. pseudomallei MIC90; for MIC: read-out: B. pseudomallei MIC Range
# A. baumannii 1705943 = test: MIC, microtiter-based liquid assay (CLSI); conditions: Acinetobacter baumannii
# B. mallei = test: microbe, parasite or virus in culture; conditions: Burkholderia mallei; for MIC50: read-out: B. mallei MIC50; for MIC90: read-out: B. mallei MIC90; for MIC: read-out: B. mallei MIC Range
# [3] = ATCC25922, read-out: MIC E. coli ATCC25922 + 50% HS
# [4] = ATCC25922, read-out: MIC E. coli ATCC25922
structure (smiles),measurement,setting,value
C[C@H](N)CCCc1cc(OC(F)(F)F)c(F)c(-c2cc3cn(-c4ccc([C@H](C)NCCCNC(=N)N)cc4)c(=O)nc3[nH]2)c1 [Compound 3],MIC,A. baumannii 1705936,2 mg/L
same,MIC,K. pneumoniae 1705949,1 mg/L
same,MIC,K. pneumoniae 1705966,0.25 mg/L
same,MIC,P. aeruginosa 1705886,4 mg/L
same,MIC,[1],0.25 mg/L
same,MIC,E. coli 1705878,0.5 mg/L
same,MIC,E. coli CAG12184 TolC,0.25 mg/L
same,MIC50,B. anthracis,0.25 mg/L
same,MIC90,B. anthracis,0.25 mg/L
same,MIC,B. anthracis,0.03 to 2 mg/L
same,MIC,[2],2 mg/L
same,MIC50,F. tularensis,≤ 0.03 mg/L
same,MIC90,F. tularensis,0.12 mg/L
same,MIC,F. tularensis,0.03 to 1 mg/L
same,MIC,E. coli MG1655 parent,0.5 mg/L
same,MIC,S. aureus 11540 MRSA,0.25 mg/L
same,MIC,E. coli ATCC25922; [3],0.5 mg/L
same,MIC,E. coli ATCC25922; [4],0.25 mg/L
same,MIC50,Y. pestis,0.25 mg/L
same,MIC90,Y. pestis,0.5 mg/L
same,MIC,Y. pestis,0.03 to 1 mg/L
same,MIC,P. aeruginosa ATCC27853,8 mg/L
same,MIC,P. aeruginosa 1705904,8 mg/L
same,MIC50,B. pseudomallei,2 mg/L
same,MIC90,B. pseudomallei,4 mg/L
same,MIC,B. pseudomallei,0.5 to 8 mg/L
same,MIC,A. baumannii 1705943,0.25 mg/L
same,MIC50,B. mallei,0.06 mg/L
same,MIC90,B. mallei,0.12 mg/L
same,MIC,B. mallei,0.03 to 0.5 mg/L
C[C@H](NCCCNC(=N)N)c1ccc(-n2cc3cc(-c4cc(CCC5(CN)CC5)cc(Cl)c4F)[nH]c3nc2=O)cc1 [Compound 4],MIC,A. baumannii 1705936,4 mg/L
same,MIC,K. pneumoniae 1705949,1 mg/L
same,MIC,K. pneumoniae 1705966,0.25 mg/L
same,MIC,P. aeruginosa 1705886,2 mg/L
same,MIC,[1],0.5 mg/L
same,MIC,E. coli 1705878,0.5 mg/L
same,MIC,E. coli CAG12184 TolC,0.25 mg/L
same,MIC50,B. anthracis,0.5 mg/L
same,MIC90,B. anthracis,0.5 mg/L
same,MIC,B. anthracis,0.06 to 4 mg/L
same,MIC,[2],4 mg/L
same,MIC50,F. tularensis,≤ 0.03 mg/L
same,MIC90,F. tularensis,≤ 0.03 mg/L
same,MIC,F. tularensis,0.03 to 1 mg/L
same,MIC,E. coli MG1655 parent,0.25 mg/L
same,MIC,S. aureus 11540 MRSA,0.25 mg/L
same,MIC,E. coli ATCC25922; [3],0.5 mg/L
same,MIC,E. coli ATCC25922; [4],0.125 mg/L
same,MIC50,Y. pestis,0.25 mg/L
same,MIC90,Y. pestis,0.25 mg/L
same,MIC,Y. pestis,0.03 to 0.5 mg/L
same,MIC,P. aeruginosa ATCC27853,4 mg/L
same,MIC,P. aeruginosa 1705904,4 mg/L
same,MIC50,B. pseudomallei,2 mg/L
same,MIC90,B. pseudomallei,4 mg/L
same,MIC,B. pseudomallei,0.5 to 8 mg/L
same,MIC,A. baumannii 1705943,0.25 mg/L
same,MIC50,B. mallei,≤ 0.03 mg/L
same,MIC90,B. mallei,0.12 mg/L
same,MIC,B. mallei,0.03 to 0.5 mg/L
C[C@H](NCCCNC(=N)N)c1ccc(-n2cc3cc(-c4cc(CCC[C@@H](N)CO)cc(Cl)c4F)[nH]c3nc2=O)cc1 [Compound 5],MIC,A. baumannii 1705936,2 mg/L
same,MIC,K. pneumoniae 1705949,0.5 mg/L
same,MIC,K. pneumoniae 1705966,0.125 mg/L
same,MIC,P. aeruginosa 1705886,4 mg/L
same,MIC,[1],0.125 mg/L
same,MIC,E. coli 1705878,2 mg/L
same,MIC,E. coli CAG12184 TolC,0.06 mg/L
same,MIC50,B. anthracis,0.12 mg/L
same,MIC90,B. anthracis,0.12 mg/L
same,MIC,B. anthracis,0.03 to 2 mg/L
same,MIC,[2],1 mg/L
same,MIC50,F. tularensis,≤ 0.03 mg/L
same,MIC90,F. tularensis,≤ 0.03 mg/L
same,MIC,F. tularensis,0.03 to 0.25 mg/L
same,MIC,E. coli MG1655 parent,0.5 mg/L
same,MIC,S. aureus 11540 MRSA,0.125 mg/L
same,MIC,E. coli ATCC25922; [3],0.25 mg/L
same,MIC,E. coli ATCC25922; [4],0.125 mg/L
same,MIC50,Y. pestis,0.25 mg/L
same,MIC90,Y. pestis,0.5 mg/L
same,MIC,Y. pestis,0.03 to 2 mg/L
same,MIC,P. aeruginosa ATCC27853,4 mg/L
same,MIC,P. aeruginosa 1705904,8 mg/L
same,MIC50,B. pseudomallei,16 mg/L
same,MIC90,B. pseudomallei,16 mg/L
same,MIC,A. baumannii 1705943,0.25 mg/L
same,MIC50,B. mallei,0.06 mg/L
same,MIC90,B. mallei,0.25 mg/L
same,MIC,B. mallei,0.03 to 0.5 mg/L

# From patent US9937183B2, “Antimicrobial compounds and methods of making and using the same” (priority 2013, dated 2018)
